Literature values as cited in patent US20260337593A1, “METHOD AND MEANS FOR ENGINEERING NON-RIBOSOMAL PEPTIDES” (JOHANN WOLFGANG GOETHE-UNIVERSITÄT FRANKFURT AM MAIN, priority 2022, published 2026).

Target: Mycobacterium tuberculosis proteasome (Mycobacterium tuberculosis, UniProt P9WHT9)
Conditions: role: inhibitor; literature reference 60

Chain of Mycobacterium tuberculosis proteasome (P9WHT9 whole entry, looked up): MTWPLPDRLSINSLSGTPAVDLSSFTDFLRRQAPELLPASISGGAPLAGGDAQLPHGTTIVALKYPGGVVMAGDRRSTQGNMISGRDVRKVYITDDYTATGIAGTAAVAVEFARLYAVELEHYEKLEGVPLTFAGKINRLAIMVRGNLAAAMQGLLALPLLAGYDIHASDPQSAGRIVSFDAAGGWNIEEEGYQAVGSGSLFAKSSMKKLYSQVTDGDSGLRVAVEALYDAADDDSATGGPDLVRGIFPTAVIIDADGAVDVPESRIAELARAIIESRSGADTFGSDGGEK

CCCCCCCCC[C@@H](O)CC(=O)N[C@@H](CC(N)=O)C(=O)N[C@@H](CCC(N)=O)C(=O)N[C@H](C=O)CC(C)C [fellutamide B]
binding of the active site's threonine: reversible binding
